Test results as given in BigSolDB 2.1.

SMILES: CN(C)CCC=C1c2ccccc2CCc2ccccc21.Cl
- solubility (mole fraction) (in 2-butanone, 283.23 K): 0.00254
- solubility (mole fraction) (in 2-butanone, 288.16 K): 0.00275
- solubility (mole fraction) (in 2-butanone, 293.2 K): 0.00304
- solubility (mole fraction) (in 2-butanone, 298.15 K): 0.00338
- solubility (mole fraction) (in 2-butanone, 303.16 K): 0.00375
- solubility (mole fraction) (in 2-butanone, 308.2 K): 0.00415
- solubility (mole fraction) (in 2-butanone, 313.15 K): 0.00462
- solubility (mole fraction) (in 2-butanone, 318.67 K): 0.00518
- solubility (mole fraction) (in 2-butanone, 323.35 K): 0.00584
- solubility (mole fraction) (in DMF, 283.86 K): 0.03
- solubility (mole fraction) (in DMF, 288.15 K): 0.032
- solubility (mole fraction) (in DMF, 293.05 K): 0.0353
- solubility (mole fraction) (in DMF, 298.04 K): 0.0387
- solubility (mole fraction) (in DMF, 303.05 K): 0.0425
- solubility (mole fraction) (in DMF, 308.17 K): 0.047
- solubility (mole fraction) (in DMF, 313.3 K): 0.0519
- solubility (mole fraction) (in DMF, 318.16 K): 0.0571
- solubility (mole fraction) (in DMF, 323 K): 0.0633
- solubility (mole fraction) (in THF, 283.09 K): 0.000628
- solubility (mole fraction) (in THF, 288.07 K): 0.000755
- solubility (mole fraction) (in THF, 293.82 K): 0.000884
- solubility (mole fraction) (in THF, 298.23 K): 0.00101
- solubility (mole fraction) (in THF, 303.1 K): 0.00116
- solubility (mole fraction) (in THF, 309.04 K): 0.00135
- solubility (mole fraction) (in THF, 313.13 K): 0.00152
- solubility (mole fraction) (in THF, 317.96 K): 0.00174
- solubility (mole fraction) (in THF, 323.16 K): 0.00196
- solubility (mole fraction) (in acetone, 283.17 K): 0.00226
- solubility (mole fraction) (in acetone, 288.13 K): 0.00252
- solubility (mole fraction) (in acetone, 293.2 K): 0.00282
- solubility (mole fraction) (in acetone, 298.07 K): 0.00316
- solubility (mole fraction) (in acetone, 303.21 K): 0.00354
- solubility (mole fraction) (in acetone, 308.19 K): 0.00398
- solubility (mole fraction) (in acetone, 313.2 K): 0.00448
- solubility (mole fraction) (in acetone, 318.2 K): 0.00503
- solubility (mole fraction) (in acetone, 323.1 K): 0.00565
- solubility (mole fraction) (in acetonitrile, 283.19 K): 0.00773
- solubility (mole fraction) (in acetonitrile, 288.13 K): 0.0089
- solubility (mole fraction) (in acetonitrile, 293.2 K): 0.0102
- solubility (mole fraction) (in acetonitrile, 298.19 K): 0.0118
- solubility (mole fraction) (in acetonitrile, 303.16 K): 0.0136
- solubility (mole fraction) (in acetonitrile, 308.13 K): 0.0157
- solubility (mole fraction) (in acetonitrile, 313.17 K): 0.0183
- solubility (mole fraction) (in acetonitrile, 318.13 K): 0.0212
- solubility (mole fraction) (in acetonitrile, 323.17 K): 0.0249
- solubility (mole fraction) (in cyclohexanone, 282.93 K): 0.00512
- solubility (mole fraction) (in cyclohexanone, 288.07 K): 0.00585
- solubility (mole fraction) (in cyclohexanone, 293.11 K): 0.0066
- solubility (mole fraction) (in cyclohexanone, 298.43 K): 0.00743
- solubility (mole fraction) (in cyclohexanone, 303.09 K): 0.00829
- solubility (mole fraction) (in cyclohexanone, 308.26 K): 0.00952
- solubility (mole fraction) (in cyclohexanone, 313.27 K): 0.011
- solubility (mole fraction) (in cyclohexanone, 319.7 K): 0.0128
- solubility (mole fraction) (in cyclohexanone, 323.1 K): 0.0144
- solubility (mole fraction) (in isobutanol, 283.25 K): 0.0281
- solubility (mole fraction) (in isopentanol, 283.17 K): 0.0122
- solubility (mole fraction) (in isopentanol, 288.19 K): 0.0159
- solubility (mole fraction) (in isopentanol, 293.17 K): 0.0202
- solubility (mole fraction) (in isopentanol, 298.2 K): 0.0256
- solubility (mole fraction) (in isopentanol, 303.23 K): 0.0326
- solubility (mole fraction) (in isopentanol, 308.17 K): 0.0416
- solubility (mole fraction) (in isopentanol, 313.15 K): 0.0532
- solubility (mole fraction) (in isopentanol, 318.2 K): 0.0671
- solubility (mole fraction) (in isopentanol, 323.17 K): 0.0827
- solubility (mole fraction) (in isopropanol, 283.16 K): 0.00585
- solubility (mole fraction) (in isopropanol, 288.35 K): 0.00786
- solubility (mole fraction) (in isopropanol, 293.16 K): 0.0102
- solubility (mole fraction) (in isopropanol, 298.16 K): 0.0133
- solubility (mole fraction) (in isopropanol, 303.05 K): 0.0177
- solubility (mole fraction) (in isopropanol, 308.06 K): 0.0239
- solubility (mole fraction) (in isopropanol, 313.54 K): 0.034
- solubility (mole fraction) (in isopropanol, 318.16 K): 0.0456
- solubility (mole fraction) (in isopropanol, 323.3 K): 0.0592
- solubility (mole fraction) (in n-butanol, 283.1 K): 0.0203
- solubility (mole fraction) (in n-butanol, 288.2 K): 0.0261
- solubility (mole fraction) (in n-butanol, 293.13 K): 0.0333
- solubility (mole fraction) (in n-butanol, 298.15 K): 0.042
- solubility (mole fraction) (in n-butanol, 303.4 K): 0.0537
- solubility (mole fraction) (in n-butanol, 308.2 K): 0.0662
- solubility (mole fraction) (in n-butanol, 313.15 K): 0.0803
- solubility (mole fraction) (in n-butanol, 318.16 K): 0.0953
- solubility (mole fraction) (in n-butanol, 323.23 K): 0.112
- solubility (mole fraction) (in n-pentanol, 288.23 K): 0.0366
- solubility (mole fraction) (in n-pentanol, 293.21 K): 0.0456
- solubility (mole fraction) (in n-pentanol, 298.07 K): 0.0562
- solubility (mole fraction) (in n-pentanol, 303.07 K): 0.0701
- solubility (mole fraction) (in n-pentanol, 308.2 K): 0.0855
- solubility (mole fraction) (in n-pentanol, 313.16 K): 0.1
- solubility (mole fraction) (in n-pentanol, 318.07 K): 0.117
- solubility (mole fraction) (in n-pentanol, 323.07 K): 0.133
- solubility (mole fraction) (in n-propanol, 283.17 K): 0.0266
- solubility (mole fraction) (in n-propanol, 288.17 K): 0.0349
- solubility (mole fraction) (in n-propanol, 293.16 K): 0.0442
- solubility (mole fraction) (in n-propanol, 298.1 K): 0.0557
- solubility (mole fraction) (in n-propanol, 303.07 K): 0.0691
- solubility (mole fraction) (in n-propanol, 308.24 K): 0.0851
- solubility (mole fraction) (in n-propanol, 313.16 K): 0.1
- solubility (mole fraction) (in n-propanol, 318.07 K): 0.116
- solubility (mole fraction) (in n-propanol, 323.2 K): 0.13
- solubility (mole fraction) (in sec-butanol, 283.2 K): 0.00725
- solubility (mole fraction) (in sec-butanol, 288.2 K): 0.00934
- solubility (mole fraction) (in sec-butanol, 293.21 K): 0.0121
- solubility (mole fraction) (in sec-butanol, 298.1 K): 0.0156
- solubility (mole fraction) (in sec-butanol, 303.17 K): 0.0207
- solubility (mole fraction) (in sec-butanol, 308.13 K): 0.0278
- solubility (mole fraction) (in sec-butanol, 313.2 K): 0.0367
- solubility (mole fraction) (in sec-butanol, 318.17 K): 0.0483
- solubility (mole fraction) (in sec-butanol, 323.2 K): 0.0637
